Laboratory results published in PubChem BioAssay (NCI).
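At the GI50, growth is halved. TGI is the concentration that stops growth completely.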

Columns and labels:
Test in all cases: DTP human tumour cell line panel, 384-well format
[1] = tested on: 786-0 renal
[2] = tested on: A498 renal
[3] = tested on: A549 NSCLC
[4] = tested on: ACHN renal
[5] = tested on: BT-549 breast
[6] = tested on: CAKI-1 renal
[7] = tested on: CCRF-CEM leukemia
[8] = tested on: COLO 205 colon
[9] = tested on: DU-145 prostate
[10] = tested on: EKVX NSCLC
[11] = tested on: HCC-2998 colon
[12] = tested on: HCT-116 colon
[13] = tested on: HCT-15 colon
[14] = tested on: HL-60(TB) leukemia
[15] = tested on: HOP-62 NSCLC
[16] = tested on: HOP-92 NSCLC
[17] = tested on: HS 578T breast
[18] = tested on: HT29 colon
[19] = tested on: IGROV1 ovarian
[20] = tested on: K-562 leukemia
[21] = tested on: KM12 colon
[22] = tested on: LOX IMVI melanoma
[23] = tested on: M14 melanoma
[24] = tested on: MALME-3M melanoma
[25] = tested on: MCF7 breast
[26] = tested on: MDA-MB-231 breast
[27] = tested on: MDA-MB-435 melanoma
[28] = tested on: MDA-MB-468 breast
[29] = tested on: MOLT-4 leukemia
[30] = tested on: NCI-H226 lung
[31] = tested on: NCI-H23 lung
[32] = tested on: NCI-H322M lung
[33] = tested on: NCI-H460 NSCLC
[34] = tested on: NCI-H522 lung
[35] = tested on: NCI/ADR-RES ovarian
[36] = tested on: OVCAR-3 ovarian
[37] = tested on: OVCAR-4 ovarian
[38] = tested on: OVCAR-5 ovarian
[39] = tested on: OVCAR-8 ovarian
[40] = tested on: PC-3 prostate
[41] = tested on: RPMI-8226 leukemia
[42] = tested on: RXF 393 renal
[43] = tested on: SF-268 CNS
[44] = tested on: SF-295 CNS
[45] = tested on: SF-539 CNS
[46] = tested on: SK-MEL-2 melanoma
[47] = tested on: SK-MEL-28 melanoma
[48] = tested on: SK-MEL-5 melanoma
[49] = tested on: SK-OV-3 ovarian
[50] = tested on: SN12C renal
[51] = tested on: SNB-19 CNS
[52] = tested on: SNB-75 CNS
[53] = tested on: SW-620 colon
[54] = tested on: T-47D breast
[55] = tested on: TK-10 renal
[56] = tested on: U251 glioblastoma
[57] = tested on: UACC-257 melanoma
[58] = tested on: UACC-62 melanoma
[59] = tested on: UO-31 renal

Which results are given for `CC(C)NC[C@@H](C(=O)N1CCN(c2ncnc3c2[C@H](C)C[C@H]3O)CC1)c1ccc(Cl)cc1`?
GI50 [1]: 1.49 µM; TGI [1]: 21 µM; GI50 [2]: 0.589 µM; TGI [2]: 11.3 µM; GI50 [3]: 18.2 µM; TGI [3]: > 100 µM; GI50 [4]: 25.1 µM; TGI [4]: > 100 µM; GI50 [5]: 0.636 µM; TGI [5]: 11.8 µM; GI50 [6]: 11.7 µM; TGI [6]: 75.5 µM; GI50 [7]: 0.854 µM; TGI [7]: 12 µM; GI50 [8]: 4.88 µM; TGI [8]: 24.5 µM; GI50 [9]: 25.8 µM; TGI [9]: > 100 µM; GI50 [10]: 10.6 µM; TGI [10]: 52.4 µM; GI50 [11]: 3.41 µM; TGI [11]: 24.1 µM; GI50 [12]: 18.2 µM; TGI [12]: 96.8 µM; GI50 [13]: 26.2 µM; TGI [13]: > 100 µM; GI50 [14]: 17.3 µM; TGI [14]: 31.2 µM; GI50 [15]: 34.1 µM; TGI [15]: > 100 µM; GI50 [16]: 11.7 µM; TGI [16]: 46.1 µM; GI50 [17]: 0.771 µM; TGI [17]: 14.6 µM; GI50 [18]: 15.1 µM; TGI [18]: 52.5 µM; GI50 [19]: 0.235 µM; TGI [19]: 2.69 µM; GI50 [20]: 25.4 µM; TGI [20]: > 100 µM; GI50 [21]: 1.45 µM; TGI [21]: 18.8 µM; GI50 [22]: 34.5 µM; TGI [22]: > 100 µM; GI50 [23]: 14.4 µM; TGI [23]: 34 µM; GI50 [24]: 7.94 µM; TGI [24]: 21.6 µM; GI50 [25]: 0.919 µM; TGI [25]: 15.5 µM; GI50 [26]: 44.9 µM; TGI [26]: > 100 µM; GI50 [27]: 23.9 µM; TGI [27]: > 100 µM; GI50 [28]: 0.494 µM; TGI [28]: 4.16 µM; GI50 [29]: 0.259 µM; TGI [29]: 1.77 µM; GI50 [30]: 21.2 µM; TGI [30]: > 100 µM; GI50 [31]: 16.2 µM; TGI [31]: 57.1 µM; GI50 [32]: 18.4 µM; TGI [32]: > 100 µM; GI50 [33]: 1.31 µM; TGI [33]: > 100 µM; GI50 [34]: 17 µM; TGI [34]: 49.3 µM; GI50 [35]: > 100 µM; TGI [35]: > 100 µM; GI50 [36]: 10.5 µM; TGI [36]: 64.5 µM; GI50 [37]: 76.8 µM; TGI [37]: > 100 µM; GI50 [38]: 18.4 µM; TGI [38]: > 100 µM; GI50 [39]: 45.9 µM; TGI [39]: > 100 µM; GI50 [40]: 1.07 µM; TGI [40]: 35.4 µM; GI50 [41]: 10.5 µM; TGI [41]: 23.9 µM; GI50 [42]: 0.3 µM; TGI [42]: 4.41 µM; GI50 [43]: 29.6 µM; TGI [43]: > 100 µM; GI50 [44]: 2.19 µM; TGI [44]: 32.7 µM; GI50 [45]: 0.587 µM; TGI [45]: 22.5 µM; GI50 [46]: 11.2 µM; TGI [46]: 24.5 µM; GI50 [47]: 11.4 µM; TGI [47]: 41.7 µM; GI50 [48]: 12 µM; TGI [48]: 25.2 µM; GI50 [49]: 0.912 µM; TGI [49]: 23.6 µM; GI50 [50]: 23.8 µM; TGI [50]: > 100 µM; GI50 [51]: 7.47 µM; TGI [51]: > 100 µM; GI50 [52]: 0.676 µM; TGI [52]: 15.3 µM; GI50 [53]: 49.9 µM; TGI [53]: > 100 µM; GI50 [54]: 0.119 µM; TGI [54]: 0.857 µM; GI50 [55]: 5.49 µM; TGI [55]: 36.9 µM; GI50 [56]: 10.2 µM; TGI [56]: > 100 µM; GI50 [57]: 14 µM; TGI [57]: 27.1 µM; GI50 [58]: 10.9 µM; TGI [58]: 30.4 µM; GI50 [59]: 35 µM; TGI [59]: > 100 µM
